Test results published in US12059425B2, “Heterocyclic compounds and uses thereof” (Kumquat Biosciences Inc., priority 2022, dated 2024).

Experiments:
wildtype K-Ras = biological target: T1, wildtype K-Ras (Homo sapiens, UniProt P01116); assay: PPI-HTRF assay, wildtype K-Ras / SOS1 interaction; assay type: biochemical; details: HTRF, K-Ras wt; read-out: PPI-HTRF-5 nM (K-Ras wt IC50)
T1 construct: made in house; host or cells: E. coli, e.g. BL21 (DE3)
Procedure, shortened: (§1)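 Equilibrium interaction of GST-tagged human K-Ras (wildtype or G12D/G12V/G12S mutant) with His-tagged hSOS1. Detection uses anti-GST-Eu(K) and anti-6His-XL665 in HEPES pH 7.4 buffer. Signal is read ≥10 min after mixing and the ratiometric HTRF signal is fitted for IC50.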

GP2D cells = assay: Ras cellular assay, cell proliferation GP2D; assay type: cell-based
Procedure, shortened: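 Growth inhibition read by CellTiter-Glo luminescence roughly 5 days after compound addition, which followed overnight plating of G12D-mutant GP2D cells (e.g., 800 per well). Compounds were tested as a serial dilution (e.g., 9 points, 3-fold), with IC50 fitted by four-parameter model.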

SW620 cells = assay: Ras cellular assay, cell proliferation SW620; assay type: cell-based; details: Homo sapiens, SW-620
Text: For example, this assay can be also used to assess selective growth inhibition of a mutant Ras protein relative to a wildtype, or relative to a different mutant Ras protein.

K-Ras G12S = biological target: T2, K-Ras G12S (Homo sapiens, UniProt P01116, G12S); assay: PPI-HTRF assay, K-Ras G12S / SOS1 interaction; assay type: biochemical; details: read-out: PPI-HTRF-5 nM (K-Ras G12S IC50)
T2 construct: made in house; host or cells: E. coli, e.g. BL21 (DE3)
Procedure, shortened: as §1

A549 cells = assay: Ras cellular assay, cell proliferation A549; assay type: cell-based; details: Homo sapiens
Procedure, shortened: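 G12S-mutant A549 cells (800/well) in RPMI-1640 plus 10% heat-inactivated FBS, standard or ultra-low attachment 384-well plates, dosed the day after plating with a 10-point 3-fold series. Viability by CellTiter-Glo luminescence about 6 days later; IC50 from four-parameter fit.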

K-Ras G12V = biological target: T3, K-Ras G12V (Homo sapiens, UniProt P01116, G12V); assay: PPI-HTRF assay, K-Ras G12V / SOS1 interaction; assay type: biochemical; details: HTRF, K-Ras G12V; read-out: PPI-HTRF-5 nM (K-Ras G12V IC50)
T3 construct: made in house; host or cells: E. coli, e.g. BL21 (DE3)
Procedure, shortened: as §1

K-Ras G12D = biological target: T4, K-Ras G12D (Homo sapiens, UniProt P01116, G12D); assay: PPI-HTRF assay, K-Ras G12D / SOS1 interaction; assay type: biochemical; details: HTRF, K-Ras G12D; read-out: PPI-HTRF-5 nM (K-Ras G12D IC50)
T4 construct: made in house; host or cells: E. coli, e.g. BL21 (DE3)
Procedure, shortened: as §1

Measured: IC50

T2 sequence (P01116 1-188 isoform P01116-2 G12S): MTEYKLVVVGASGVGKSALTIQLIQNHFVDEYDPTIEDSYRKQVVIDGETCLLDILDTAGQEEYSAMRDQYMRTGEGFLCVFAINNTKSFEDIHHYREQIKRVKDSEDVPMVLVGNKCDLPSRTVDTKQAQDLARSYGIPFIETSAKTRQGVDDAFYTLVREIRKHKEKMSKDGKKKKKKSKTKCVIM
T1 sequence (P01116 1-188 isoform P01116-2): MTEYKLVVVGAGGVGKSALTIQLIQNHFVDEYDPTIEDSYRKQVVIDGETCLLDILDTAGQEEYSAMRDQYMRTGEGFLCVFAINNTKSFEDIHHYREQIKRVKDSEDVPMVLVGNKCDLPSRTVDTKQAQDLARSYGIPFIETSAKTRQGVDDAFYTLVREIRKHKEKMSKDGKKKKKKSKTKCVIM
T4 sequence (P01116 1-188 isoform P01116-2 G12D): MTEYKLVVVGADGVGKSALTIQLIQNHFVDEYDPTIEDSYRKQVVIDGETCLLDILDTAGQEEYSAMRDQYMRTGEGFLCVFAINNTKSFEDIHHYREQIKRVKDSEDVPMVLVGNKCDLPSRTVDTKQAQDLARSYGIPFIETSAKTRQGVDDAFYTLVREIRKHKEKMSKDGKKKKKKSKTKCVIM
T3 sequence (P01116 1-188 isoform P01116-2 G12V): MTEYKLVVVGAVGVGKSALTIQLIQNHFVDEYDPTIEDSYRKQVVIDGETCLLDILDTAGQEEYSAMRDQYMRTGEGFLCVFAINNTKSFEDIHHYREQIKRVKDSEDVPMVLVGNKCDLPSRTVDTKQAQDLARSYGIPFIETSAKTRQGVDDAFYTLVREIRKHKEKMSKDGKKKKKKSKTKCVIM

CN1c2nc(OC[C@@]34CCCN3C[C@H](F)C4)nc3c(F)c(-c4ccc(F)c5sc(N)c(C#N)c45)c(Cl)c(c23)OC2CN(C=O)CC21 (stereo partly drawn) [compound 126, 2-amino-4-(6-chloro-4-fluoro-2-(((2R,7aS)-2-fluorotetrahydro-1H-pyrrolizin-7a(5H)-yl)methoxy)-9-formyl-11-methyl-7a,8,9,10,10a,11-hexahydropyrrolo[3′,4′:2,3][1,4]oxazepino[5,6,7-de]quinazolin-5-yl)-7-fluorobenzo[b]thiophene-3-carbonitrile]
< 5 µM: all assays above

COCC1CCC2COc3c(Cl)c(-c4ccc(F)c5sc(N)c(C#N)c45)c(F)c4nc(OC[C@@]56CCCN5C[C@H](F)C6)nc(c34)N12 (stereo partly drawn) [compound 138, 2-amino-4-(6-chloro-4-fluoro-2-(((2R,7aS)-2-fluorotetrahydro-1H-pyrrolizin-7a(5H)-yl)methoxy)-11-(methoxymethyl)-8a,9,10,11-tetrahydro-8H-pyrrolo[2′,1′:3,4][1,4]oxazepino[5,6,7-de]quinazolin-5-yl)-7-fluorobenzo[b]thiophene-3-carbonitrile]
< 5 µM: all assays above

CN1c2nc(OC[C@@]34CCCN3C[C@H](F)C4)nc3c(F)c(-c4ccc(F)c5sc(N)c(C#N)c45)c(Cl)c(c23)OCC2COCC21 (stereo partly drawn) [compound 141, 2-amino-4-(6-chloro-4-fluoro-2-(((2R,7aS)-2-fluorotetrahydro-1H-pyrrolizin-7a(5H)-yl)methoxy)-12-methyl-8a,9,11a,12-tetrahydro-8H,11H-furo[3′,4′:6,7][1,5]oxazocino[4,3,2-de]quinazolin-5-yl)-7-fluorobenzo[b]thiophene-3-carbonitrile]
< 5 µM: all assays above

N#Cc1c(N)sc2c(F)ccc(-c3c(Cl)c4c5c(nc(OC[C@@]67CCCN6C[C@H](F)C7)nc5c3F)N3C(CCCC3C(F)F)CO4)c12 (stereo partly drawn) [compound 189, 2-amino-4-(6-chloro-12-(difluoromethyl)-4-fluoro-2-(((2R,7aS)-2-fluorotetrahydro-1H-pyrrolizin-7a(5H)-yl)methoxy)-8,8a,9,10,11,12-hexahydropyrido[2′,1′:3,4][1,4]oxazepino [5,6,7-de]quinazolin-5-yl)-7-fluorobenzo[b]thiophene-3-carbonitrile]
< 5 µM: all assays above

N#Cc1c(N)sc2c(F)ccc(-c3c(Cl)c4c5c(nc(OC[C@@]67CCCN6C[C@H](F)C7)nc5c3F)N3CC[C@H]3CCO4)c12 [compound 207, 2-amino-4-((12aS)-9-chloro-7-fluoro-5-(((2R,7aS)-2-fluorotetrahydro-1H-pyrrolizin-7a(5H)-yl)methoxy)-1,11,12,12a-tetrahydro-2H-azeto[11,2′:5,6][1,5]oxazocino[4,3,2-de]quinazolin-8-yl)-7-fluorobenzo[b]thiophene-3-carbonitrile]
< 5 µM: all assays above

N#Cc1c(N)sc2c(F)ccc(-c3c(Cl)c4c5c(nc(OC[C@@]67CCCN6C[C@H](F)C7)nc5c3F)N3CC[C@H]3CO4)c12 [compound 192, 2-amino-4-((11aS)-9-chloro-7-fluoro-5-(((2R,7aS)-2-fluorotetrahydro-1H-pyrrolizin-7a(5H)-yl)methoxy)-1,2,11,11a-tetrahydroazeto[2′,1′:3,4][1,4]oxazepino [5,6,7-de]quinazolin-8-yl)-7-fluorobenzo[b]thiophene-3-carbonitrile]
< 5 µM: all assays above

N#Cc1c(N)sc2c(F)ccc(-c3c(Cl)c4c5c(nc(OC[C@@]67CCCN6C[C@H](F)C7)nc5c3F)N3CCCNCC3CO4)c12 (stereo partly drawn) [compound 151, 2-amino-4-(12-chloro-10-fluoro-8-(((2R,7aS)-2-fluorotetrahydro-1H-pyrrolizin-7a(5H)-yl)methoxy)-2,3,4,5,14,14a-hexahydro-1H-[1,4]diazepino[2′,1′:3,4][1,4]oxazepino [5,6,7-de]quinazolin-11-yl)-7-fluorobenzo[b]thiophene-3-carbonitrile]
< 5 µM: all assays above

N#Cc1c(N)sc2c(F)ccc(-c3c(Cl)c4c5c(nc(OCC67CCCN6C[C@H](F)C7)nc5c3F)N3CC(CO)CCC3CO4)c12 (stereo partly drawn) [compound 215, 2-amino-4-(6-chloro-4-fluoro-2-(((2R)-2-fluorotetrahydro-1H-pyrrolizin-7a(5H)-yl)methoxy)-11-(hydroxymethyl)-8,8a,9,10,11,12-hexahydropyrido[2′,1′:3,4][1,4]oxazepino [5,6,7-de]quinazolin-5-yl)-7-fluorobenzo[b]thiophene-3-carbonitrile]
< 5 µM: all assays above

N#Cc1c(N)sc2c(F)ccc(-c3c(Cl)c4c5c(nc(OCC67CCCN6C[C@H](F)C7)nc5c3F)N3CCC[C@H]3CO4)c12 (stereo partly drawn) [compound 159, 2-amino-4-((12aS)-10-chloro-8-fluoro-6-(((2R)-2-fluorotetrahydro-1H-pyrrolizin-7a(5H)-yl)methoxy)-2,3,12,12a-tetrahydro-1H-pyrrolo[2′,1′:3,4][1,4]oxazepino[5,6,7-de]quinazolin-9-yl)-7-fluorobenzo[b]thiophene-3-carbonitrile]
< 5 µM: all assays above
